Measurements: PubChem BioAssay AID248 (DTP/NCI, 2004)
Several values for one entry are separate records, joined by “and”; a condition that tells them apart may be missing. Equal entries are not always repeated. Toxic doses and inconclusive results are not listed. Rule as the data show it: active = T/C of 150% or more; inactive = T/C below 125%.

Tested on: L1210 leukemia ip in BDF1 mice, survival T/C
Test: NCI In Vivo Anticancer Drug Screen. Data for tumor model L1210 Leukemia (intraperitoneal) in B6D2F1 (BDF1) mice
Settings: endpoint: mean survival time, higher = longer survival
Summary of the method: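 Antitumor effect is assessed in tumor-bearing animals. Survival in the compound arm is compared with a vehicle-dosed control arm and expressed as their quotient.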

[1] = dose: 50.0 mg/kg/injection, schedule: Q01DX001 (ip), vehicle: saline
[2] = dose: 100.0 mg/kg/injection, schedule: Q04DX003 (ip), vehicle: saline
[3] = dose: 100.0 mg/kg/injection, schedule: Q01DX009 (ip), vehicle: Klucel (hydroxypropylcellulose) (HPC)
[4] = dose: 100.0 mg/kg/injection, schedule: Q04DX003 (ip), vehicle: Klucel (hydroxypropylcellulose) (HPC)
[5] = dose: 200.0 mg/kg/injection, schedule: Q01DX009 (ip), vehicle: Klucel (hydroxypropylcellulose) (HPC)
[6] = dose: 400.0 mg/kg/injection, schedule: Q01DX009 (ip), vehicle: Klucel (hydroxypropylcellulose) (HPC)
[7] = dose: 100.0 mg/kg/injection, schedule: Q04DX003 (ip), vehicle: saline with Tween-80
[8] = dose: 200.0 mg/kg/injection, schedule: Q04DX003 (ip), vehicle: saline with Tween-80
[9] = dose: 100.0 mg/kg/injection, schedule: Q04DX002 (ip), vehicle: saline with Tween-80
[10] = dose: 200.0 mg/kg/injection, schedule: Q04DX002 (ip), vehicle: saline with Tween-80
[11] = dose: 400.0 mg/kg/injection, schedule: Q04DX002 (ip), vehicle: saline with Tween-80
[12] = dose: 100.0 mg/kg/injection, schedule: Q01DX009 (ip), vehicle: saline
[13] = dose: 200.0 mg/kg/injection, schedule: Q01DX009 (ip), vehicle: saline
[14] = dose: 100.0 mg/kg/injection, schedule: Q01DX001 (ip), vehicle: saline
[15] = dose: 100.0 mg/kg/injection, schedule: Q04DX002 (ip), vehicle: Klucel (hydroxypropylcellulose) (HPC)
[16] = dose: 200.0 mg/kg/injection, schedule: Q04DX002 (ip), vehicle: Klucel (hydroxypropylcellulose) (HPC)
[17] = dose: 400.0 mg/kg/injection, schedule: Q04DX002 (ip), vehicle: Klucel (hydroxypropylcellulose) (HPC)
[18] = dose: 50.0 mg/kg/injection, schedule: Q01DX009 (ip), vehicle: Klucel (hydroxypropylcellulose) (HPC)
[19] = dose: 200.0 mg/kg/injection, schedule: Q04DX003 (ip), vehicle: saline
[20] = dose: 400.0 mg/kg/injection, schedule: Q04DX003 (ip), vehicle: saline
[21] = dose: 200.0 mg/kg/injection, schedule: Q01DX001 (ip), vehicle: saline
[22] = dose: 400.0 mg/kg/injection, schedule: Q01DX001 (ip), vehicle: saline

Measured: T/C

NC(CCl)=NCc1ccccc1
inactive: dose: 6.25 mg/kg/injection, schedule: Q01DX009 (ip), vehicle: saline 97 % of control and 98 % of control | dose: 12.5 mg/kg/injection, schedule: Q01DX009 (ip), vehicle: saline 101 % of control and 115 % of control | dose: 25.0 mg/kg/injection, schedule: Q01DX001 (ip), vehicle: saline 98 % of control | dose: 25.0 mg/kg/injection, schedule: Q04DX002 (ip), vehicle: saline 105 % of control and 91 % of control | dose: 25.0 mg/kg/injection, schedule: Q04DX003 (ip), vehicle: saline 90 % of control | [1] 97 % of control | dose: 50.0 mg/kg/injection, schedule: Q04DX002 (ip), vehicle: saline 94 % of control and 89 % of control | dose: 50.0 mg/kg/injection, schedule: Q04DX003 (ip), vehicle: saline 97 % of control | [2] 95 % of control

CCCCCCc1c(C(OC)OC)[nH]c(=S)[nH]c1=O
inactive: [3] 91 % of control | [4] 96 % of control | [5] 87 % of control | dose: 200.0 mg/kg/injection, schedule: Q04DX003 (ip), vehicle: Klucel (hydroxypropylcellulose) (HPC) 98 % of control | [6] 87 % of control | dose: 400.0 mg/kg/injection, schedule: Q04DX003 (ip), vehicle: Klucel (hydroxypropylcellulose) (HPC) 96 % of control

CC1(C)N=C(N)N=C(N)N1c1ccc2c(Cl)c(Cl)ccc2c1
inactive: dose: 50.0 mg/kg/injection, schedule: Q04DX003 (ip), vehicle: saline with Tween-80 106 % of control | [7] 107 % of control and 114 % of control | [8] 107 % of control

Cc1ccc(S(=O)(=O)N/N=C\C(O)C(O)C(O)CO)cc1 (stereo unspecified)
inactive: [9] 97 % of control | [10] 94 % of control | [11] 97 % of control

OCCC#CCCCO
inactive: [12] 93 % of control | [13] 92 % of control | dose: 400.0 mg/kg/injection, schedule: Q01DX009 (ip), vehicle: saline 88 % of control

C[CH2][Pb]([CH2]C)([CH2]C)[N]1C(=O)c2c(Cl)c(Cl)c(Cl)c(Cl)c2C1=O
inactive: dose: 12.5 mg/kg/injection, schedule: Q04DX002 (ip), vehicle: Klucel (hydroxypropylcellulose) (HPC) 107 % of control

NC(N)=N/N=C/c1nccc2ccccc12
inactive: [1] 102 % of control | [14] 102 % of control

NC(=S)N/N=C/c1cc(Br)cc(Br)c1O
inactive: [15] 95 % of control | [16] 91 % of control | [17] 100 % of control

O=C1OC2(c3ccc(O)cc3Oc3cc(O)ccc32)C2C3C=CC(C3)C12 (stereo unspecified)
inactive: [18] 98 % of control | [3] 104 % of control | [2] 98 % of control | [5] 97 % of control | [19] 92 % of control | [20] 95 % of control

CCCCS(=O)(=O)CCN1C(=O)C2C3CCC(O3)C2C1=O (stereo unspecified)
inactive: [15] 98 % of control | [16] 123 % of control | [17] 107 % of control

O=C(NCCCl)OCCCl
inactive: dose: 100.0 mg/kg/injection, schedule: Q04DX002 (ip), vehicle: saline 94 % of control | dose: 200.0 mg/kg/injection, schedule: Q04DX002 (ip), vehicle: saline 97 % of control | dose: 400.0 mg/kg/injection, schedule: Q04DX002 (ip), vehicle: saline 94 % of control

CC1CCCC(C)C1O (stereo unspecified)
inactive: [14] 103 % of control | [21] 101 % of control | [22] 103 % of control

O=C(O)C1C2CCCCC2=C2CCCCC2C1C(=O)O (stereo unspecified)
inactive: [15] 90 % of control | [7] 93 % of control | [16] 98 % of control | [8] 94 % of control | [17] 93 % of control | dose: 400.0 mg/kg/injection, schedule: Q04DX003 (ip), vehicle: saline with Tween-80 91 % of control

O=C(O)c1cccc(S(=O)(=O)O)c1
inactive: [14] 105 % of control | [21] 98 % of control | [22] 102 % of control

N/C(=N\O)c1cn(C2OC(CO)C(O)C2O)c2ncncc12 (stereo unspecified)
inactive: dose: 25.0 mg/kg/injection, schedule: Q01DX009 (ip), vehicle: saline 123 % of control | dose: 100.0 mg/kg/injection, schedule: Q01DX005 (ip), vehicle: saline 120 % of control

Cc1ccc(C)c(Br)c1C
inactive: dose: 100.0 mg/kg/injection, schedule: Q01DX009 (ip), vehicle: saline with Tween-80 104 % of control | [9] 104 % of control | dose: 200.0 mg/kg/injection, schedule: Q01DX009 (ip), vehicle: saline with Tween-80 104 % of control | [10] 101 % of control | dose: 400.0 mg/kg/injection, schedule: Q01DX009 (ip), vehicle: saline with Tween-80 101 % of control | [11] 101 % of control

CCOc1cc(OCC)c(OCC)cc1/C=C1\N=C(c2ccccc2)OC1=O
inactive: [15] 96 % of control | [16] 96 % of control | [17] 96 % of control

Cc1ccc(OC(=O)C2=C(C(=O)Oc3ccc(C)cc3)CCC2)cc1
inactive: dose: 75.0 mg/kg/injection, schedule: Q01DX001 (ip), vehicle: saline 95 % of control | dose: 150.0 mg/kg/injection, schedule: Q01DX001 (ip), vehicle: saline 97 % of control | dose: 300.0 mg/kg/injection, schedule: Q01DX001 (ip), vehicle: saline 95 % of control

CCOC(=O)Nc1ccc(Cl)c(Cl)c1
inactive: [3] 98 % of control | [5] 101 % of control | [6] 108 % of control

CC(C)C(CCCC(=O)O)C(=O)O (stereo unspecified)
inactive: dose: 50.0 mg/kg/injection, schedule: Q01DX001 (ip), vehicle: carboxymethylcellulose (CMC) 96 % of control | dose: 100.0 mg/kg/injection, schedule: Q01DX001 (ip), vehicle: carboxymethylcellulose (CMC) 96 % of control | dose: 200.0 mg/kg/injection, schedule: Q01DX001 (ip), vehicle: carboxymethylcellulose (CMC) 96 % of control

O=NO.O=N[O-].O=N[O-].[Co+3].[NH2-].[NH2-].[NH2-].[NH2-]
inactive: dose: 12.0 mg/kg/injection, schedule: Q01DX009 (ip), vehicle: Klucel (hydroxypropylcellulose) (HPC) 100 % of control | dose: 25.0 mg/kg/injection, schedule: Q01DX009 (ip), vehicle: Klucel (hydroxypropylcellulose) (HPC) 107 % of control | dose: 25.0 mg/kg/injection, schedule: Q04DX003 (ip), vehicle: Klucel (hydroxypropylcellulose) (HPC) 103 % of control | [18] 102 % of control | dose: 50.0 mg/kg/injection, schedule: Q04DX003 (ip), vehicle: Klucel (hydroxypropylcellulose) (HPC) 96 % of control | [4] 94 % of control and 110 % of control

CC(C)(C)OC(=O)COc1ccc(NC(=O)COc2ccc(Cl)c(Cl)c2)cc1
inactive: dose: 100.0 mg/kg/injection, schedule: Q01DX001 (ip), vehicle: Klucel (hydroxypropylcellulose) (HPC) 101 % of control | dose: 200.0 mg/kg/injection, schedule: Q01DX001 (ip), vehicle: Klucel (hydroxypropylcellulose) (HPC) 101 % of control | dose: 400.0 mg/kg/injection, schedule: Q01DX001 (ip), vehicle: Klucel (hydroxypropylcellulose) (HPC) 101 % of control

CC(C)(O)C(I)C[n+]1ccccc1 (stereo unspecified)
inactive: dose: 50.0 mg/kg/injection, schedule: Q01DX009 (ip), vehicle: saline 107 % of control | dose: 88.0 mg/kg/injection, schedule: Q04DX003 (ip), vehicle: saline with Tween-80 124 % of control | [12] 110 % of control and 113 % of control | [7] 106 % of control | [2] 102 % of control and 111 % of control | dose: 133.0 mg/kg/injection, schedule: Q04DX003 (ip), vehicle: saline with Tween-80 119 % of control | dose: 175.0 mg/kg/injection, schedule: Q04DX003 (ip), vehicle: saline 106 % of control | [13] 117 % of control and 121 % of control | [8] 117 % of control | [19] 108 % of control | dose: 265.0 mg/kg/injection, schedule: Q04DX003 (ip), vehicle: saline 114 % of control | [20] 121 % of control | dose: 600.0 mg/kg/injection, schedule: Q04DX003 (ip), vehicle: saline 90 % of control
